Key:
[1] = target: T1, THRβ (Homo sapiens, UniProt P10828); assay: Time-resolved FRET (THR-FRET) agonist activity assay, GST-tagged THRβ LBD with SRC2 polypeptide; format: biochemical; settings: ratio of THR-FRET EC50 values THRα/THRβ
T1 construct: made in house; host or cells: E. coli BL21 (DE3)
T1 sequence (P10828 217-461 limits assumed): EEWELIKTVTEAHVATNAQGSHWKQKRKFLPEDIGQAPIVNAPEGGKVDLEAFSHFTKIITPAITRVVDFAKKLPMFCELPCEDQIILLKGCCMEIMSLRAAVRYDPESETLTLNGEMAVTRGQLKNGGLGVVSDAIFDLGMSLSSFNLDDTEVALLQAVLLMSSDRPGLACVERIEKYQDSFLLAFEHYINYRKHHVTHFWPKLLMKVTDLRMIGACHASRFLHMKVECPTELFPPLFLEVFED
From the text: Experimental Example 2: Detection of Agonist Activities of Compounds Against THRα/β Based on Time-Resolved Fluorescence Resonance Energy Transfer (THR-FRET)
By visiting NCBI, the THRα/β LBD domain sequences were found. The pET21-His-GST-dLBT-THRα LBD and pET21-His-GST-dLBT-THRβ LBD overexpression vectors were constructed by the fusion method, and sequenced to confirm the accuracy of the sequences.
The correctly sequenced THRα LBD and THRβ LBD overexpression vectors were transfected into E. coli cells BL21 (DE3), and spread on an agar plate with ampicillin. Monoclones were picked out and amplified in an LB medium, and transferred into 1 L LB at a ratio of 1:100 for large-scale culture. When the OD value was at 0.8 to 1.2, 0.5 mM isopropyl-beta-D-thiogalactopyranoside (IPTG) was added, and induced overnight at 18° C. The bacteria were harvested, disrupted, and purified via the GST column and the molecular sieve to obtain two proteins His-GST-dLBT-THRα LBD and His-GST-dLBT-THRβ LBD.
The proteins were taken out from a refrigerator at −80° C. The proteins with the GST-tagged THRα/β LBD domain and the Eu-labelled GST antibodies were thawed slowly on ice, and an assay buffer containing a final concentration of 5 mM dithiothreitol (DTT) was formulated.
The starting concentration of the compound was 100 μM (in DMSO). The compound (100 μM in DMSO) was subjected to 3-fold isogradient dilution with DMSO to obtain a total of 11 isogradient concentrations. Subsequently, the above compounds at the isogradient concentration were further subjected to 50-fold dilution with an assay buffer containing 5 mM DTT.
The final concentrations of all components were calculated based on a system with a final volume of 20 μL per well. To 18 μL of assay buffer containing 5 mM DTT, the GST-tagged THRα/β proteins, the SRC2 ([…]) polypeptide, XL665 (Cisobio, #610SAXLB), and the Eu-labeled GST antibody were added, and the final concentrations were 2 nM, 200 nM, 0.05 nM, and 7.6 nM respectively to formulate 18 μL of reaction mixture of the proteins, polypeptide, and antibody per well.
18 μL of reaction mixture and 2 μL of diluted compound were added into an optiplate-384-well plate, and reacted at room temperature for 24 h.
The plate was read using an MD i3X multi-mode microplate reader with the excitation and emission wavelengths of 340 nm and 665 nm, respectively. The intensity of light at a wavelength of 616 nm generated by europium excited by 340 nm wavelength light from the MD i3X multi-mode microplate reader was used as the background. According to the different activation degrees of different compounds against THRα and THRβ, the intensity of the emission light at a wavelength of 665 nm generated by exciting XL665 with the exciting light at a wavelength of 616 nm was varied. The intensity ratio between these two light wavelengths (665 nm, 616 nm) was used as the activation activity of the compound against THRα or THRβ, and the ratio in the solvent DMSO group was used for normalization. The dose-response curve was fitted with four parameters using the GraphPad Prism 6.0 software, and the EC50 value was calculated.

[2] = target: T2, THRβ (Homo sapiens, UniProt P10828); assay: Reporter gene (GAL4-THRβ-LBD / Dual-Glo luciferase) agonist activity assay in HEK293T cells; format: cell-based; settings: ratio of reporter gene EC50 values THRα/THRβ
T2 construct: expressed in transfected cells; host or cells: HEK293T
T2 sequence (P10828 217-461): T1 sequence (P10828 217-461 limits assumed)
From the text: Experimental Example 1: Detection of THRα and THRβ Agonist Activities of Compounds Based on Reporter Gene Activity Assay Method
1.1 Construction and Preparation of Plasmids pGAL4-THR-LBD and pG5-Luc
The pGAL4-THRα-LBD and pGAL4-THRβ-LBD plasmids used in the reporter gene assay system were constructed by a conventional molecular cloning method comprising the following main steps: the cDNA sequences of THRα (NM_003250) and THRβ (NM_000461) corresponding to the amino acid sequences of THRα (163-407AA) and THRβ (217-461AA) were inserted into the BamHI and NotI enzyme digestion sites of the pGAL4 vector by the PCR technique respectively to obtain the pGAL4-THRα-LBD and pGAL4-THRβ-LBD plasmids; the pG5-Luc (#E249A) and pRL-TK (#E2241) plasmids were purchased from Promega; the plasmids were transfected into the E. coli DH5α by the CaCl2 method, and after further culture and amplification, the plasmids were purified by Plasmid Extraction Kits (TIANGEN, #D107) to obtain the corresponding plasmid DNAs.
1.2 Co-Transfection of Plasmids into HEK293T Cells and Treatment with Compounds
The HEK293T cells were inoculated into a 96-well plate at a density of 1×10^4/well the day before plasmid transfection. Cell transfection was conducted according to the instructions of the transfection reagent FuGENE® HD (Promega, #E2311). The main steps were as follows: taking one well as an example here, the plasmids pGAL4-THRα-LBD or pGAL4-THRβ-LBD, pG5-Luc, and pRL-TK were added in the proportions of 20 ng, 50 ng, and 5 ng to 10 μL of Opti-MEM™ I medium (Gibco, #11058021) and mixed well; subsequently, 0.25 uL of FuGENE® HD was added, mixed well, and then left at room temperature for 5 min; afterwards, 10 μL of the mixture was added to the cell wells containing 100 μL of culture medium. After cell co-transfection for 6 h, the compound was diluted in a 3-fold gradient with dimethyl sulfoxide at the highest concentration of 1 uM. The compound was added to the cell culture medium at a total of 10 concentrations for treatment for 24 h. There were a total of two duplicate wells for each concentration. Triiodothyronine (T3) was used as the positive control.
1.3 Dual-Glo Luciferase Assay
After the cells were treated with the compound for 24 h, the cells were assayed according to the instructions of Dual-Glo® Luciferase Assay System (Promega, #E2940). The main steps were as follows: 50 μL of culture medium was aspirated from each well and discarded, and then 50 μL of Dual-Glo® Luciferase reagent was added and oscillated at room temperature for 10 min; 80 μL of lysis reaction solution was measured into a white opaque optiPlate-96-well plate, and the luminescence signal value (Firefly-Luc) of the Firefly luciferase was detected using an MD i3x multi-mode microplate reader; 40 μL of Dual-Glo® Stop & Glo® reagent was then added, and oscillated at room temperature for 10 min; the luminescence signal value (Renilla-Luc) of the Renilla luciferase was then detected using an MD i3x multi-mode microplate reader. The Firefly-Luc/Renilla-Luc ratio was used as the activation activity of the compound against THR, and the ratio in the solvent DMSO group was used for normalization; the dose-response curve was fitted with four parameters using the GraphPad Prism6.0 software, and the EC50 value was calculated.

Structure (SMILES)	Selectivity (THRα/THRβ) [1]	Selectivity (THRα/THRβ) [2]
[2H]C(F)(F)c1nn(-c2cc(Br)c(COc3ccccc3C(=O)NC)c(Br)c2)c(=O)[nH]c1=O [Compound 107]	†† (††: 10 ≥ THRα/β;)	† (†: 5 ≥ THRα/β;)
[2H]C(Oc1ccccc1C(=O)NC([2H])([2H])[2H])c1c(Br)cc(-n2nc(C([2H])(F)F)c(=O)[nH]c2=O)cc1Br (centres unmarked) [Compound 113]	†† (††: 10 ≥ THRα/β;)	† (†: 5 ≥ THRα/β;)
[2H]C([2H])(Oc1ccccc1C(=O)NC)c1c(Br)cc(-n2nc(C(F)F)c(=O)[nH]c2=O)cc1Br [Compound 108]	†† (††: 10 ≥ THRα/β;)	† (†: 5 ≥ THRα/β;)
CNC(=O)c1ccccc1SCc1c(Br)cc(-n2ncc(=O)[nH]c2=O)cc1Br [Compound 25]	††† (†††: 20 ≥ THRα/β > 10;)	† (†: 5 ≥ THRα/β;)
CNC(=O)c1ccccc1SCc1c(Cl)cc(-n2nc(N)c(=O)[nH]c2=O)cc1Cl [Compound 29]	††† (†††: 20 ≥ THRα/β > 10;)	† (†: 5 ≥ THRα/β;)
NC(=O)c1ccccc1OCc1c(Cl)cc(-n2nc(C(F)F)c(=O)[nH]c2=O)cc1Cl [Compound 54]	†† (††: 10 ≥ THRα/β;)	† (†: 5 ≥ THRα/β;)
NC(=O)c1ccccc1OCc1c(Br)cc(-n2ncc(=O)[nH]c2=O)cc1Br [Compound 38]	†† (††: 10 ≥ THRα/β;)	†† (††: 10 ≥ THRα/β > 5;)

Source: patent publication US20260048060A1, “POLYCYCLIC THYROID HORMONE b RECEPTOR AGONIST AND USE THEREOF” (CASCADE PHARMACEUTICALS, INC., priority 2022, published 2026)
